The results in this text go back to patent publication US20080306056A1, “PYRAZOLE-DERIVATIVES AS FACTOR Xa INHIBITORS” (SANOFI-AVENTIS DEUTSCHLAND GMBH, priority 2002, published 2008).

T1 sequence (P00742 235-488 limits assumed): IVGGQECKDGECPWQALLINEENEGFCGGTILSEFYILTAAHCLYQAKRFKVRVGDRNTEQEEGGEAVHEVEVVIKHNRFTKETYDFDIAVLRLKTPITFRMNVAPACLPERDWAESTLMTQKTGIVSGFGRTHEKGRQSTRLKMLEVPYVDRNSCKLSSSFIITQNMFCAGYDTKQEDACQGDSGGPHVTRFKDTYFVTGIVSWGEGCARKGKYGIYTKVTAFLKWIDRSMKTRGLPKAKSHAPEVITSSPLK
T1 sequence (P00742 41-179 partner limits assumed): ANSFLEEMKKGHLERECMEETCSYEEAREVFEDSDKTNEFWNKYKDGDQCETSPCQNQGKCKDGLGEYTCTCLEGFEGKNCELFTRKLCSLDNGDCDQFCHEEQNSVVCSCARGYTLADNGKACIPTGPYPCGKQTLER

This test has as its target T1, human factor Xa (Homo sapiens, UniProt P00742).
T1 construct: 25 μl human factor Xa (Enzyme Research Laboratories, Inc; South Bend, Ind.); purchased Enzyme Research Laboratories, Inc; South Bend, Ind
Description: Factor Xa assay (chromogenic, purified enzyme). The conditions noted are these: inhibition constant for factor Xa; chromogenic substrate S-2765 140 μM, enzyme 0.5 nM, 25° C., pH 7.8; Ki=IC50/{1+(substrate concentration/Km)}; read-out: Ki(FXa). The class given is biochemical. An excerpt:
The ability of the compound of formulae I, Ib and Ic to inhibit factor Xa or factor VIIa or other enzymes like thrombin, plasmin, or trypsin can be assessed by determining the concentration of the compound of the formulae I, Ib and Ic that inhibits enzyme activity by 50%, i.e. the IC50 value, which was related to the inhibition constant Ki. Purified enzymes were used in chromogenic assays. The concentration of inhibitor that causes a 50% decrease in the rate of substrate hydrolysis was determined by linear regression after plotting the relative rates of hydrolysis (compared to the uninhibited control) versus the log of the concentration of the compound of formulae I, Ib and Ic. For calculating the inhibition constant Ki, the IC50 value was corrected for competition with substrate using the formula wherein Km is the Michaelis-Menten constant (Chen and Prusoff, Biochem.
Ki=IC50/{1+(substrate concentration/Km)}
Pharmacol. 22 (1973) 3099-3108; I. H. Segal, Enzyme Kinetics, 1975, John Wiley & Sons, New York, 100-125; which were incorporated herein by reference).
The IC50 was determined by combining in appropriate wells of a Costar half-area microtiter plate 25 μl human factor Xa (Enzyme Research Laboratories, Inc.; South Bend, Ind.) in TBS-PEG; 40 μl 10% (v/v) DMSO in TBS-PEG (uninhibited control) or various concentrations of the compound to be tested diluted in 10% (v/v) DMSO in TBS-PEG; and substrate S-2765 (N(α)-benzyloxycarbonyl-D-Arg-Gly-L-Arg-p-nitroanilide; Kabi Pharmacia, Inc.; Franklin, Ohio) in TBS-PEG.
The assay was performed by pre-incubating the compound of formulae I, Ib and Ic plus enzyme for 10 min. Then the assay was initiated by adding substrate to obtain a final volume of 100 μl. The initial velocity of chromogenic substrate hydrolysis was measured by the change in absorbance at 405 nm using a Bio-tek Instruments kinetic plate reader (Ceres UV900HDi) at 25° C. during the linear portion of the time course (usually 1.5 min after addition of substrate). The enzyme concentration was 0.5 nM and substrate concentration was 140 μM.
The inhibitory activity towards factor VIIa/tissue factor activity was determined using a chromogenic assay essentially as described previously (J. A. Ostrem et al., Biochemistry 37 (1998) 1053-1059 which was incorporated herein by reference). Kinetic assays were conducted at 25° C. in half-area microtiter plates (Costar Corp., Cambridge, Mass.) using a kinetic plate reader (Molecular Devices Spectramax 250). A typical assay consisted of 25 μl human factor VIIa and TF (5 nM and 10 nM, respective final concentration) combined with 40 μl of inhibitor dilutions in 10% DMSO/TBS-PEG buffer (50 mM Tris, 15 mM NaCl, 5 mM CaCl2, 0.05% PEG 8000, pH 8.15). Following a 15 minute preincubation period, the assay was initiated by the addition of 35 μl of the chromogenic substrate S-2288 (D-Ile-Pro-Arg-p-nitroanilide, Pharmacia Hepar Inc., 500 μM final concentration).
As to `CC(C)N1CCC(NC(=O)c2cc(-c3cccs3)nn2Cc2cc(-c3ccc(Cl)s3)on2)CC1` [Example 1, 2-[5-(5-Chloro-thiophen-2-yl)-isoxazol-3-ylmethyl]-5-thiophen-2-yl-2H-pyrazole-3-carboxylic acid (1-isopropyl-piperidin-4-yl)-amide], the Ki – broadly, the equilibrium dissociation constant of an inhibitor or competing ligand from its target – turned out to be 30 nM.
To `CC(C)N1CCC(NC(=O)c2cc(-c3cccs3)n(Cc3cc(-c4ccc(Cl)s4)on3)n2)CC1` [Example 2, 1-[5-(5-Chloro-thiophen-2-yl)-isoxazol-3-ylmethyl]-5-thiophen-2-yl-1H-pyrazole-3-carboxylic acid (1-isopropyl-piperidin-4-yl)-amide] belongs 32 nM; to `Cc1cc(C(=O)NC2CCN(C(C)C)CC2)n(Cc2cc(-c3ccc(Cl)s3)on2)n1` [Example 3, 2-[5-(5-Chloro-thiophen-2-yl)-isoxazol-3-ylmethyl]-5-methyl-2H-pyrazole-3-carboxylic acid (1-isopropyl-piperidin-4-yl)-amide], 112 nM.
For the compound `CC(C)N1CCC(NC(=O)c2cc(-c3ccc(Cl)s3)nn2Cc2cc(-c3ccc(Cl)s3)on2)CC1` [Example 5, 5-(5-Chloro-thiophen-2-yl)-2-[5-(5-chloro-thiophen-2-yl)-isoxazol-3-ylmethyl]-2H-pyrazole-3-carboxylic acid (1-isopropyl-piperidin-4-yl)-amide], the inhibitory constant (Ki) stood at 300 nM.
Turning to `CC(C)N1CCC(NC(=O)c2cc(-c3ccc(Cl)s3)n(Cc3cc(-c4ccc(Cl)s4)on3)n2)CC1` [Example 6, 5-(5-Chloro-thiophen-2-yl)-1-[5-(5-chloro-thiophen-2-yl)-isoxazol-3-ylmethyl]-1H-pyrazole-3-carboxylic acid (1-isopropyl-piperidin-4-yl)-amide], the inhibitory constant (Ki) is 491 nM.
To `CC(C)N1CCC(NC(=O)c2c(-c3ccc(Cl)cc3Cl)cnn2Cc2cc(-c3ccc(Cl)s3)on2)CC1` [Example 7, 2-[5-(5-Chloro-thiophen-2-yl)-isoxazol-3-ylmethyl]-4-(2,4-dichloro-phenyl)-2H-pyrazole-3-carboxylic acid (1-isopropyl-piperidin-4-yl)-amide] belongs 293 nM; to `CCCc1cc(C(=O)NC2CCN(C(C)C)CC2)n(Cc2cc(-c3ccc(Cl)s3)on2)n1` [Example 8, 2-[5-(5-Chloro-thiophen-2-yl)-isoxazol-3-ylmethyl]-5-propyl-2H-pyrazole-3-carboxylic acid (1-isopropyl-piperidin-4-yl)-amide], 54 nM; to `CC(C)N1CCC(NC(=O)c2cc(C(C)(C)C)nn2Cc2cc(-c3ccc(Cl)s3)on2)CC1` [Example 9, 5-tert-Butyl-2-[5-(5-chloro-thiophen-2-yl)-isoxazol-3-ylmethyl]-2H-pyrazole-3-carboxylic acid (1-isopropyl-piperidin-4-yl)-amide], 332 nM.
To `CCCc1nn(Cc2cc(-c3ccc(Cl)s3)on2)c(C(=O)NC2CCN(C(C)C)CC2)c1C#N` [Example 10, 2-[5-(5-Chloro-thiophen-2-yl)-isoxazol-3-ylmethyl]-4-cyano-5-propyl-2H-pyrazole-3-carboxylic acid (1-isopropyl-piperidin-4-yl)-amide] belongs 41 nM; to `CCCc1c(C#N)c(C(=O)NC2CCN(C(C)C)CC2)nn1Cc1cc(-c2ccc(Cl)s2)on1` [Example 11, 1-[5-(5-Chloro-thiophen-2-yl)-isoxazol-3-ylmethyl]-4-cyano-5-propyl-1H-pyrazole-3-carboxylic acid (1-isopropyl-piperidin-4-yl)-amide], 83 nM.
Take `CC(C)N1CCC(NC(=O)c2c(C#N)c(-c3cccs3)nn2Cc2cc(-c3ccc(Cl)s3)on2)CC1` [Example 12, 2-[5-(5-Chloro-thiophen-2-yl)-isoxazol-3-ylmethyl]-4-cyano-5-thiophen-2-yl-2H-pyrazole-3-carboxylic acid (1-isopropyl-piperidin-4-yl)-amide]: the Ki came to 14 nM.
As for `CC(C)N1CCC(NC(=O)c2nn(Cc3cc(-c4ccc(Cl)s4)on3)c(-c3cccs3)c2C#N)CC1` [Example 13, 1-[5-(5-Chloro-thiophen-2-yl)-isoxazol-3-ylmethyl]-4-cyano-5-thiophen-2-yl-1H-pyrazole-3-carboxylic acid (1-isopropyl-piperidin-4-yl)-amide], the inhibition constant (Ki) is 39 nM.
As to `CC(C)N1CCC(NC(=O)c2cc(-c3cccs3)nn2Cc2csc(-c3ccc(Cl)s3)n2)CC1` [Example 14, 2-[2-(5-Chloro-thiophen-2-yl)-thiazol-4-ylmethyl]-5-thiophen-2-yl-2H-pyrazole-3-carboxylic acid (1-isopropyl-piperidin-4-yl)-amide], the inhibition constant (Ki) stood at 46 nM.
As to `CC(C)N1CCC(NC(=O)c2cc(-c3cccs3)nn2Cc2cc3ccc(Cl)cc3s2)CC1` [Example 15, 2-(6-Chloro-benzo[b]thiophen-2-ylmethyl)-5-thiophen-2-yl-2H-pyrazole-3-carboxylic acid (1-isopropyl-piperidin-4-yl)-amide], the inhibition constant Ki turned out to be 13 nM.
As to `O=C(NCC1CCN(c2ccncc2)CC1)c1cc(-c2cccs2)nn1Cc1cc(-c2ccc(Cl)s2)on1` [Example 16, 2-[5-(5-Chloro-thiophen-2-yl)-isoxazol-3-ylmethyl]-5-thiophen-2-yl-2H-pyrazole-3-carboxylic acid (3,4,5,6-tetrahydro-2H-[1,4′]bipyridinyl-4-ylmethyl)-amide], the inhibitory constant (Ki) is 165 nM.
To `CC(C)N1CCC(CNC(=O)c2cc(-c3cccs3)nn2Cc2cc(-c3ccc(Cl)s3)on2)CC1` [Example 17, 2-[5-(5-Chloro-thiophen-2-yl)-isoxazol-3-ylmethyl]-5-thiophen-2-yl-2H-pyrazole-3-carboxylic acid (1-isopropyl-piperidin-4-ylmethyl)-amide] belongs 155 nM; to `O=C(NC1CCN(c2ccncc2)CC1)c1cc(-c2cccs2)nn1Cc1cc(-c2ccc(Cl)s2)on1` [Example 18, 2-[5-(5-Chloro-thiophen-2-yl)-isoxazol-3-ylmethyl]-5-thiophen-2-yl-2H-pyrazole-3-carboxylic acid (3,4,5,6-tetrahydro-2H-[1,4′]bipyridinyl-4-yl)-amide], 205 nM.
`CC(C)N1CCC(NC(=O)c2c(C#N)c(-c3cccs3)nn2Cc2ccc(Cl)cc2)CC1` [Example 19, 2-(4-Chloro-benzyl)-4-cyano-5-thiophen-2-yl-2H-pyrazole-3-carboxylic acid (1-isopropyl-piperidin-4-yl)-amide]: the Ki was 274 nM.
The value for `COC(=O)c1cc(C(=O)NC2CCN(C(C)C)CC2)n(Cc2cc(-c3ccc(Cl)s3)on2)n1` [Example 20, 1-[5-(5-Chloro-thiophen-2-yl)-isoxazol-3-ylmethyl]-5-(1-isopropyl-piperidin-4-ylcarbamoyl)-1H-pyrazole-3-carboxylic acid methyl ester] was 73 nM.
For `CC(C)N1CCC(NC(=O)c2cc(C(=O)O)nn2Cc2cc(-c3ccc(Cl)s3)on2)CC1` [Example 21, 1-[5-(5-Chloro-thiophen-2-yl)-isoxazol-3-ylmethyl]-5-(1-isopropyl-piperidin-4-ylcarbamoyl)-1H-pyrazole-3-carboxylic acid], the inhibition constant Ki came out at 214 nM.
To `CCOC(=O)c1cc(C(=O)NC2CCN(C(C)C)CC2)n(Cc2cc(-c3ccc(Cl)s3)on2)n1` [Example 23, 1-[5-(5-Chloro-thiophen-2-yl)-isoxazol-3-ylmethyl]-5-(1-isopropyl-piperidin-4-ylcarbamoyl)-1H-pyrazole-3-carboxylic acid ethyl ester] belongs 144 nM; to `CC(C)N1CCC(NC(=O)c2cc(C(=O)N3CCOCC3)nn2Cc2cc(-c3ccc(Cl)s3)on2)CC1` [Example 25, 2-[5-(5-Chloro-thiophen-2-yl)-isoxazol-3-ylmethyl]-5-(morpholine-4-carbonyl)-2H-pyrazole-3-carboxylic acid (1-isopropyl-piperidin-4-yl)-amide], 95 nM.
